Tests used:
[1] = test system: Hepatitis C virus; assay: Antiviral activity against Hepatitis C virus genotype 1b infected in Huh7-clone ET Rep cells assessed as inhibition of HCV replication by luciferase assay; assay type: functional, organism-based, Hepacivirus hominis
[2] = Inhibition of Hepatitis C virus genotype 1a full-length NS3/4A protease; design: species or system Hepatitis C virus subtype 1a
[3] = Intrinsic clearance in human liver microsomes; assay type: ADME; settings: read-out: CLH
[4] = Apparent permeability of the compound from apical to basolateral side of human Caco2 cells; assay type: ADME, cell-based; settings: Caco-2
[5] = Volume of distribution at steady state in Sprague-Dawley rat at 2 mg/kg, iv administered as single dose with 20% Hydroxypropyl-beta-cyclodextrine; assay type: ADME, organism-based; design: dose 2 mg/kg, route intravenous; settings: in vivo, read-out: Vdss
[6] = Plasma clearance in rat; assay type: ADME, organism-based
[7] = Metabolic stability in rat bile assessed as unchanged drug level at 1 mg/kg, iv after 1 hr; assay type: ADME, organism-based; design: dose 1 mg/kg, route intravenous; settings: read-out: Stability
[8] = Oral bioavailability in rat; assay type: ADME, organism-based; settings: in vivo
[9] = test system: PBMC; assay: Cytostatic activity against staphylococcal enterotoxin B-stimulated human PBMC assessed as decrease in cell proliferation after 7 hrs by [3H]thymidine incorporation assay; assay type: cell-based; settings: read-out: CS50 (the source's name)
[10] = Protein binding in plasma (unknown origin); assay type: ADME, cell-free; settings: read-out: PPB
[11] = Cytotoxicity against staphylococcal enterotoxin B-stimulated human PBMC assessed as decrease in cell viability after 72 hrs by WST-1 assay; assay type: cell-based
[12] = test system: Hepatitis C virus; assay: Antiviral activity against Hepatitis C virus infected in po dosed patient assessed as log10 reduction of HCV RNA level administered qd for 5 days; assay type: functional, Hepacivirus hominis
[13] = Inhibition of Hepatitis C virus genotype 1b NS3/4A protease; design: species or system Hepatitis C virus subtype 1b
[14] = Half life in Sprague-Dawley rat at 10 mg/kg, po administered with 50% PEG400 containing 2.5% of Vitamin E-TPGS; assay type: ADME, organism-based; design: dose 10 mg/kg, route oral; settings: in vivo
[15] = Tmax in Sprague-Dawley rat at 10 mg/kg, po administered with 50% PEG400 containing 2.5% of Vitamin E-TPGS; assay type: ADME, organism-based; design: dose 10 mg/kg, route oral; settings: in vivo
[16] = Clearance in Sprague-Dawley rat at 2 mg/kg, iv administered as single dose with 20% Hydroxypropyl-beta-cyclodextrine; assay type: ADME, organism-based; design: dose 2 mg/kg, route intravenous; settings: in vivo
[17] = Cmax in Sprague-Dawley rat at 10 mg/kg, po administered with 50% PEG400 containing 2.5% of Vitamin E-TPGS; assay type: ADME, organism-based; design: dose 10 mg/kg, route oral; settings: in vivo
[18] = Oral bioavailability in Sprague-Dawley rat at 10 mg/kg administered with 50% PEG400 containing 2.5% of Vitamin E-TPGS; assay type: ADME, organism-based; settings: in vivo
[19] = Drug metabolism in human liver microsomes at 5 uM at 37 degC after 15 mins; assay type: ADME; settings: read-out: Drug metabolism
[20] = test system: Hepatitis C virus; assay: Antiviral activity against Hepatitis C virus genotype 1a; assay type: functional, organism-based, Hepacivirus hominis; settings: subtype 1a
[21] = Ratio of drug level in liver to plasma in Sprague-Dawley rat at 2 mg/kg, iv administered as single dose with 20% Hydroxypropyl-beta-cyclodextrine measured after 6 hrs; assay type: ADME, organism-based; design: dose 2 mg/kg, route intravenous; settings: liver and plasma
[22] = AUC in Sprague-Dawley rat at 10 mg/kg, po administered with 50% PEG400 containing 2.5% of Vitamin E-TPGS; assay type: ADME, organism-based; design: dose 10 mg/kg, route oral; settings: plasma
[23] = Ratio of drug level in liver to plasma in Sprague-Dawley rat at 10 mg/kg, po administered with 50% PEG400 containing 2.5% of Vitamin E-TPGS measured after 6 hrs; assay type: ADME, organism-based; design: dose 10 mg/kg, route oral; settings: liver and plasma
[24] = test system: Hepatitis C virus; assay: Antiviral activity against Hepatitis C virus genotype 1 infected in human patient assessed as log10 reduction of viral RNA level administered as oral dose measured after 2 days; assay type: functional, Hepacivirus hominis

With CCc1cnc(-c2ccc(C)cc2NC(=O)O[C@@H]2C[C@H]3C(=O)N[C@]4(C(=O)NS(=O)(=O)C5CC5)C[C@H]4/C=C\CCCCN(C)C(=O)[C@@H]3C2)s1 the EC50 [1] was 3.2 nM, the Ki [2] was 0.2 nM and the microsomal CLint [3] was under 6 µL/min/mg. The Papp A→B [4] was 15 ×10⁻⁶ cm/s.

For COc1ccc2c(O[C@@H]3C[C@H]4C(=O)N[C@]5(C(=O)NS(=O)(=O)C6CC6)C[C@H]5/C=C\CCCCN(N)C(=O)[C@@H]4C3)cc(-c3ccccc3)nc2c1, the EC50 [1] was 0.033 nM and the Ki [2] was 0.19 nM.

Work on COc1ccc(-c2nc(O[C@@H]3C[C@H]4C(=O)N[C@]5(C(=O)NS(=O)(=O)C6CC6)C[C@H]5/C=C\CCCCN(C)C(=O)N4C3)c3ccc(OC)c(C)c3n2)cc1 yielded an EC50 [1] of 3 nM, a Ki [2] of 0.6 nM and a microsomal CLint [3] of 8 µL/min/mg. The Papp A→B [4] was 33 ×10⁻⁶ cm/s.

COc1ccc2c(O[C@@H]3C[C@H]4C(=O)N[C@]5(C(=O)O)C[C@H]5/C=C\CCCCN(C)C(=O)[C@@H]4C3)cc(-c3ccccc3)nc2c1 showed an EC50 [1] of 2.2 nM and a Ki [2] of 44 nM.

Work on COc1cc(O[C@@H]2C[C@H]3C(=O)N[C@]4(C(=O)NS(=O)(=O)C5CC5)C[C@H]4/C=C\CCCCN(C)C(=O)N3C2)nc(-c2ccccc2)n1 yielded an EC50 [1] of 84 nM.

Work on COc1ccc2c(O[C@@H]3C[C@H]4C(=O)N[C@]5(C(=O)NS(=O)(=O)C6CC6)C[C@H]5/C=C\CCCCN(C)C(=O)N4C3)nc(-c3ccccc3)nc2c1C yielded an EC50 [1] of 11 nM, a Vd [5] of 1.1 L/kg and a Ki [2] of 0.2 nM. The microsomal CLint [3] was 17 µL/min/mg and the Papp A→B [4] was 26 ×10⁻⁶ cm/s.

Work on COc1ccc2c(O[C@@H]3C[C@H]4C(=O)N[C@]5(C(=O)NS(=O)(=O)C6CC6)C[C@H]5/C=C\CCCCN(C)C(=O)[C@@H]4C3)cc(-c3ccccc3)nc2c1 yielded a clearance [6] of 46.5 mL/min/kg, a remaining at 1 h [7] of 95% and a bioavailability [8] of 2.5%.

Compound COc1ccc2c(O[C@@H]3C[C@H]4C(=O)N[C@]5(C(=O)NS(=O)(=O)C6CC6)C[C@H]5/C=C\CCCCN(C)C(=O)[C@@H]4C3)cc(-c3nc(C(C)C)cs3)nc2c1C [SIMEPREVIR] has a GI50 [9] of at least 10000 nM, a fraction unbound [10] of under 0.01 and an EC50 [1] of 7.8 nM. The EC90 [1] was 19 nM, the CC50 at 72 h [11] was at least 10000 nM and the Ki [2] was 0.36 nM. For the same compound, the FC [12] was 3.9 and the Ki [13] was 1.4 nM.

For CCOc1cc(O[C@@H]2C[C@H]3C(=O)N[C@]4(C(=O)NS(=O)(=O)C5CC5)C[C@H]4/C=C\CCCCN(C)C(=O)[C@@H]3C2)c2ccc(OC)c(C)c2n1, the EC50 [1] was 4.3 nM.

With COc1ccc2c(O[C@@H]3C[C@H]4C(=O)N[C@]5(C(=O)NS(=O)(=O)C6CC6)C[C@H]5/C=C\CCCCN(NC(=O)OC(C)(C)C)C(=O)[C@@H]4C3)cc(-c3ccccc3)nc2c1 the EC50 [1] was 0.53 nM and the Ki [2] was 0.07 nM.

COc1ccc2c(O[C@@H]3C[C@H]4C(=O)N[C@]5(C(=O)NS(=O)(=O)C6(C)CC6)C[C@H]5/C=C\CCCCCC(=O)N4C3)cc(-c3nc(C(C)C)cs3)nc2c1C showed a half-life [14] of 2.7 h, an EC50 [1] of 3.8 nM and a Vd [5] of 0.56 L/kg. For the same compound, the Tmax [15] was 0.75 h, the clearance [16] was 15.7 mL/min/kg and the Ki [2] was 0.2 nM. The Cmax [17] was 930 nM, the Papp A→B [4] was 11.1 ×10⁻⁶ cm/s and the bioavailability [18] was 31%.

For C=C[C@@H]1C[C@]1(NC(=O)[C@@H]1C[C@@H](Oc2cc(-c3ccccc3)nc3cc(OC)ccc23)C[C@H]1C(=O)N[C@H](C(=O)N[C@H](C(=O)NC)C1CCCCC1)C(C)(C)C)C(=O)O, the Ki [2] was 22 nM.

Compound COc1ccc2c(O[C@@H]3C[C@H]4C(=O)N[C@]5(C(=O)O)C[C@H]5/C=C\CCCCN(C(=O)OC(C)(C)C)C(=O)[C@@H]4C3)cc(-c3ccccc3)nc2c1 has an EC50 [1] of over 10 nM and a Ki [2] of 31 nM.

Compound H-DDIVPC-OH has a Ki [2] of 71000 nM.

For COc1ccc2c(O[C@H]3C[C@H]4C(=O)NCCCC/C=C\[C@@H]5C[C@@]5(C(=O)NS(=O)(=O)C5CC5)NC(=O)[C@@H]4C3)cc(-c3ccccc3)nc2c1, the EC50 [1] was 4.4 nM and the Ki [2] was 2.2 nM.

Compound COc1ccc2c(O[C@H]3C=C4C(=O)N(N)CCCC/C=C\[C@@H]5C[C@@]5(C(=O)O)NC(=O)C4C3)cc(-c3ccccc3)nc2c1 (stereo partly specified) has an EC50 [1] of 5.4 nM and a Ki [2] of 15 nM.

For C=C[C@@H]1C[C@]1(NC(=O)[C@@H]1C[C@@H](Oc2cc(-c3ccccc3)nc3cc(OC)ccc23)C=C1C(=O)N[C@H](C(=O)N[C@H](C(=O)NC)C1CCCCC1)C(C)(C)C)C(=O)O, the Ki [2] was 1.3 nM.

COc1ccc2c(O[C@@H]3C[C@H]4C(=O)N[C@]5(C(=O)O)C[C@H]5/C=C/CCCCC[C@H](NC(=O)OC5CCCC5)C(=O)N4C3)cc(-c3csc(NC(C)C)n3)nc2c1 [listing 1 of 2 here] gave an EC50 [1] of 1.63 nM, a metabolised at 0.25 h, 5 µM [19] of 2.5% and an EC50 [20] of 4 nM. For the same compound, the Ki [13] was 0.66 nM.

In the case of COc1ccc2c(O[C@@H]3C[C@H]4C(=O)N[C@]5(C(=O)NS(=O)(=O)C6(C)CC6)C[C@H]5/C=C\CCCCCNC(=O)N4C3)cc(-c3nc(C(C)C)cs3)nc2c1, the half-life [14] is reported as 3 h, the Vd [5] is reported as 1 L/kg and the metabolised at 0.25 h, 5 µM [19] is reported as 89%. For the same compound, the Tmax [15] was 0.75 h, the Kp at 6 h [21] was 550 and the AUC [22] was 6 µM·h. For the same compound, the Kp at 6 h [23] was 100.

COc1ccc2c(O[C@H]3C[C@H]4C(=O)NCCCC/C=C\[C@@H]5C[C@@]5(C(=O)O)NC(=O)[C@@H]4C3)cc(-c3ccccc3)nc2c1 gave an EC50 [1] of over 10 nM and a Ki [2] of 260 nM.

Work on COc1ccc2c(O[C@@H]3C[C@H]4C(=O)N[C@]5(C(=O)O)C[C@H]5/C=C\CCCCCN(C(=O)OC(C)(C)C)C(=O)[C@@H]4C3)cc(-c3ccccc3)nc2c1 yielded an EC50 [1] of over 10 nM and a Ki [2] of 710 nM.

With COc1ccc2c(O[C@@H]3C[C@H]4C(=O)N[C@]5(C(=O)NS(=O)(=O)C6CC6)C[C@H]5/C=C\COCCN(C)C(=O)[C@@H]4C3)cc(-c3ccccc3)nc2c1 the EC50 [1] was 320 nM.

Work on COc1ccc2c(O[C@@H]3C[C@H]4C(=O)N[C@]5(C(=O)O)C[C@H]5/C=C\CCCCN(N)C(=O)[C@@H]4C3)cc(-c3ccccc3)nc2c1 yielded an EC50 [1] of 7.6 nM and a Ki [2] of 6 nM.

For COc1ccc2c(O[C@@H]3C[C@H]4C(=O)N[C@]5(C(=O)O)C[C@H]5/C=C/CCCCC[C@H](NC(=O)OC5CCCC5)C(=O)N4C3)cc(-c3csc(NC(C)C)n3)nc2c1 [listing 2 of 2 here], the FC [24] was 2.

COc1ccc2c(O[C@@H]3C[C@H]4C(=O)N[C@]5(C(=O)O)C[C@H]5/C=C\CCCN(C(=O)OC(C)(C)C)C(=O)[C@@H]4C3)cc(-c3ccccc3)nc2c1 gave an EC50 [1] of over 10 nM and a Ki [2] of 130 nM.
